Experimental data reported in patent US20200316083A1, “ANTIBACTERIAL COMPOSITIONS” (WOCKHARDT LIMITED, priority 2016, published 2020).

Key:
Type in all cases: cell-based
[1] = tested on: K. pneumoniae B-88 producing metallo beta-lactamase enzymes; experiment: Time kill study against K. pneumoniae B-88
Protocol: (§1) In general, the antibacterial activity of compositions according to invention was studied by performing time kill studies. In a typical time kill study, the freshly grown cultures were diluted to the required cell density (initial starting inoculum) in cation adjusted Muller Hinton broth medium (BD, USA). The antibacterial agents (either alone or in combination) at the required concentrations were added into the culture-containing medium. The samples were incubated under shaking condition (120 rpm) at 37° C. Enumeration of viable bacterial count was done every 2 hour by diluting in normal saline and plating on to the Tryptic Soya Agar plates (BD, USA). The plates were incubated for 24 hours to arrive at a viable bacterial count. The results are expressed in terms of log10 CFU/ml. In general, the decrease of 1 log10 CFU/ml corresponds to 90% killing of bacteria. Similarly, 2 log10 CFU/ml reductions indicates to 99% killing of bacteria and 3 log10 CFU/ml reductions is equal to 99.9% killing of bacteria.

[2] = tested on: E. coli 7MP producing Class A and Class C beta-lactamase enzymes; experiment: Time kill study against E. coli 7MP; conditions: for Effect on bacterial count (in words): alone or in combination
Protocol: as §1

[3] = tested on: A. baumanni 13301 producing Carbapenem hydrolysing beta-lactamase enzymes; experiment: Time kill study against A. baumanni 13301
Protocol: as §1

For `CC(C)(O/N=C(\C(=O)N[C@@H]1C(=O)N2C(C(=O)[O-])=C(C[N+]3(CCNC(=O)c4ccc(O)c(O)c4Cl)CCCC3)CS[C@H]12)c1csc(N)n1)C(=O)O` [Compound of Formula (I), (6R,7R)-7-[(2Z)-2-(2-amino-1,3-thiazol-4-yl)-2-{[(2-carboxypropan-2-yl)oxy]imino}acetamido]-3-({1-[2-(2-chloro-3,4-dihydroxybenzamido)ethyl]pyrrolidin-1-ium-1-yl}methyl)-8-oxo-5-thia-1-azabicyclo[4.2.0]oct-2-ene-2-carboxylate], the “Bacterial count (Log10 CFU/ml) 0 hours” value ([1]; 0.25 mcg/ml alone) was 7.28 Log10 CFU/ml, the “Bacterial count (Log10 CFU/ml) 0 hours” value ([1]; 0.5 mcg/ml alone) was 7.28 Log10 CFU/ml and the “Change in Log10 CFU/ml over 0 hour count after 24 hours” value ([1]; 0.25 mcg/ml alone) was −0.47 Log10 CFU/ml. The “Change in Log10 CFU/ml over 0 hour count after 24 hours” value ([1]; 0.5 mcg/ml alone) was −0.98 Log10 CFU/ml, the “Bacterial count (Log10 CFU/ml) 2 hours” value ([1]; 0.25 mcg/ml alone) was 6.74 Log10 CFU/ml and the “Bacterial count (Log10 CFU/ml) 2 hours” value ([1]; 0.5 mcg/ml alone) was 6.18 Log10 CFU/ml. The “Bacterial count (Log10 CFU/ml) 4 hours” value ([1]; 4 hours, 0.5 mcg/ml alone) was 5.85 Log10 CFU/ml, the “Bacterial count (Log10 CFU/ml) 6 hours” value ([1]; 0.25 mcg/ml alone) was 6.70 Log10 CFU/ml and the “Bacterial count (Log10 CFU/ml) 6 hours” value ([1]; 0.5 mcg/ml alone) was 6.30 Log10 CFU/ml. For the same molecule, the “Bacterial count (Log10 CFU/ml) 24 hours” value ([1]; 0.25 mcg/ml alone) was 6.81 Log10 CFU/ml, the “Bacterial count (Log10 CFU/ml) 24 hours” value ([1]; 0.5 mcg/ml alone) was 6.30 Log10 CFU/ml and the “Effect on bacterial count (in words)” value ([1]; summary of Table 1, alone or in combination) was “could not reduce the bacterial count”. The “Change in Log10 CFU/ml over 0 hour count after 24 hours” value ([2]; Table 2, 0.25 mcg/ml alone) was 2.12 Log10 CFU/ml, the “Change in Log10 CFU/ml over 0 hour count after 24 hours” value ([2]; Table 2, 0.5 mcg/ml alone) was 2.12 Log10 CFU/ml and the “Bacterial count (Log10 CFU/ml) 2 hours” value ([2]; Table 2, 0.25 mcg/ml alone) was 7.60 Log10 CFU/ml. For the same molecule, the “Bacterial count (Log10 CFU/ml) 2 hours” value ([2]; Table 2, 0.5 mcg/ml alone) was 7.18 Log10 CFU/ml, the “Bacterial count (Log10 CFU/ml) 4 hours” value ([2]; Table 2, 0.25 mcg/ml alone) was 9.11 Log10 CFU/ml and the “Bacterial count (Log10 CFU/ml) 4 hours” value ([2]; Table 2, 0.5 mcg/ml alone) was 7.74 Log10 CFU/ml. For the same molecule, the “Bacterial count (Log10 CFU/ml) 6 hours” value ([2]; Table 2, 0.25 mcg/ml alone) was 9.20 Log10 CFU/ml, the “Bacterial count (Log10 CFU/ml) 6 hours” value ([2]; Table 2, 0.5 mcg/ml alone) was 9.18 Log10 CFU/ml and the “Bacterial count (Log10 CFU/ml) 24 hours” value ([2]; Table 2, 0.25 mcg/ml alone) was 9.20 Log10 CFU/ml. The “Bacterial count (Log10 CFU/ml) 24 hours” value ([2]; Table 2, 0.5 mcg/ml alone) was 9.20 Log10 CFU/ml, the “Change in Log10 CFU/ml over 0 hour count after 8 hours” value ([2]; Table 5, 1 mcg/ml alone) was 1.57 Log10 CFU/ml and the “Bacterial count (Log10 CFU/ml) 2 hours” value ([2]; Table 5, 1 mcg/ml alone) was 7.15 Log10 CFU/ml. For the same molecule, the “Bacterial count (Log10 CFU/ml) 4 hours” value ([2]; Table 5, 1 mcg/ml alone) was 6.60 Log10 CFU/ml, the “Bacterial count (Log10 CFU/ml) 6 hours” value ([2]; Table 5, 1 mcg/ml alone) was 7.90 Log10 CFU/ml and the “Bacterial count (Log10 CFU/ml) 8 hours” value ([2]; Table 5, 8 hours, 1 mcg/ml alone) was 8.65 Log10 CFU/ml. For the same molecule, the “Effect on bacterial count (in words)” value ([2]; summary of Table 2) was “could not reduce the bacterial count”, the “Effect on bacterial count (in words)” value ([2]; summary of Table 5, throughout the duration of the study) was “did not reduce the bacterial count” and the “Bacterial count (Log10 CFU/ml) 0 hours” value ([3]; 0 hours, 4 mcg/ml alone) was 6.88 Log10 CFU/ml. For the same molecule, the “Change in Log10 CFU/ml over 0 hour count after 24 hours” value ([3]; 4 mcg/ml alone) was 2.22 Log10 CFU/ml, the “Bacterial count (Log10 CFU/ml) 2 hours” value ([3]; 2 hours, 4 mcg/ml alone) was 4.85 Log10 CFU/ml and the “Bacterial count (Log10 CFU/ml) 4 hours” value ([3]; 4 hours, 4 mcg/ml alone) was 4.02 Log10 CFU/ml. The “Bacterial count (Log10 CFU/ml) 6 hours” value ([3]; 6 hours, 4 mcg/ml alone) was 5.18 Log10 CFU/ml, the “Bacterial count (Log10 CFU/ml) 8 hours” value ([3]; 8 hours, 4 mcg/ml alone) was 7.5 Log10 CFU/ml and the “Bacterial count (Log10 CFU/ml) 24 hours” value ([3]; 24 hours, 4 mcg/ml alone) was 9.10 Log10 CFU/ml. The “Effect on bacterial count (in words)” value ([3]; summary of Table 3, alone or in combination) was “could not reduce the bacterial count”.
